Data taken from PubChem BioAssay (NCI).
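Abbreviation: GI50, concentration required for 50% inhibition of growth. TGI is the concentration that stops growth completely.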

Experiments:
Experiment in all cases: NCI anticancer screen, dose series, 384-well format
[1] = test system: OVCAR-3 ovarian
[2] = test system: UACC-257 melanoma
[3] = test system: SNB-19 CNS
[4] = test system: SK-MEL-28 melanoma
[5] = test system: HOP-62 NSCLC
[6] = test system: NCI-H322M lung
[7] = test system: SR leukemia
[8] = test system: MDA-MB-468 breast
[9] = test system: PC-3 prostate
[10] = test system: RXF 393 renal
[11] = test system: A498 renal
[12] = test system: UACC-62 melanoma
[13] = test system: IGROV1 ovarian
[14] = test system: KM12 colon
[15] = test system: MCF7 breast
[16] = test system: OVCAR-8 ovarian
[17] = test system: SF-539 CNS
[18] = test system: U251 glioblastoma
[19] = test system: HOP-92 NSCLC
[20] = test system: HCT-116 colon
[21] = test system: HT29 colon
[22] = test system: M14 melanoma
[23] = test system: NCI-H522 lung
[24] = test system: SN12C renal
[25] = test system: RPMI-8226 leukemia
[26] = test system: SK-MEL-5 melanoma
[27] = test system: UO-31 renal
[28] = test system: TK-10 renal
[29] = test system: NCI-H226 lung
[30] = test system: K-562 leukemia
[31] = test system: BT-549 breast
[32] = test system: A549 NSCLC
[33] = test system: MDA-MB-435 melanoma
[34] = test system: CCRF-CEM leukemia
[35] = test system: NCI/ADR-RES ovarian
[36] = test system: DU-145 prostate
[37] = test system: NCI-H460 NSCLC
[38] = test system: CAKI-1 renal
[39] = test system: OVCAR-5 ovarian
[40] = test system: SW-620 colon
[41] = test system: HCT-15 colon
[42] = test system: ACHN renal
[43] = test system: MDA-MB-231 breast
[44] = test system: HCC-2998 colon
[45] = test system: MOLT-4 leukemia
[46] = test system: SK-MEL-2 melanoma
[47] = test system: HL-60(TB) leukemia
[48] = test system: NCI-H23 lung
[49] = test system: COLO 205 colon
[50] = test system: SF-268 CNS
[51] = test system: SK-OV-3 ovarian
[52] = test system: OVCAR-4 ovarian
[53] = test system: SF-295 CNS
[54] = test system: 786-0 renal
[55] = test system: LOX IMVI melanoma
[56] = test system: T-47D breast
[57] = test system: MALME-3M melanoma

Compound: C=CC(=O)N1C[C@@H]2CCOc3c(Cl)c(-c4c(O)cccc4F)c(F)c4ncnc(c34)N2C[C@H]1C
- GI50 [1]: 1550 nM
- TGI [1]: 3.04 µM
- GI50 [2]: 1290 nM
- TGI [2]: 6.42 µM
- GI50 [3]: 3.76 µM
- TGI [3]: 16 µM
- GI50 [4]: 2360 nM
- TGI [4]: 8.43 µM
- GI50 [5]: 30.9 nM
- TGI [5]: 4.75 µM
- GI50 [6]: 6.66 µM
- TGI [6]: 19.4 µM
- GI50 [7]: 1070 nM
- TGI [7]: 2280 nM
- GI50 [8]: 1680 nM
- TGI [8]: 3.62 µM
- GI50 [9]: 3.04 µM
- TGI [9]: 10.6 µM
- GI50 [10]: 60.1 nM
- TGI [10]: 407 nM
- GI50 [11]: 2270 nM
- TGI [11]: 8.26 µM
- GI50 [12]: 1410 nM
- TGI [12]: 5.5 µM
- GI50 [13]: 1700 nM
- TGI [13]: 4.64 µM
- GI50 [14]: 1880 nM
- TGI [14]: 4.27 µM
- GI50 [15]: 3.1 µM
- TGI [15]: 11.6 µM
- GI50 [16]: 1640 nM
- TGI [16]: 3.06 µM
- GI50 [17]: 1800 nM
- TGI [17]: 3.45 µM
- GI50 [18]: 2430 nM
- TGI [18]: 7.66 µM
- GI50 [19]: 2950 nM
- TGI [19]: 9.36 µM
- GI50 [20]: 2200 nM
- TGI [20]: 5.95 µM
- GI50 [21]: 2540 nM
- TGI [21]: 6.84 µM
- GI50 [22]: 2620 nM
- TGI [22]: 10.1 µM
- GI50 [23]: 1630 nM
- TGI [23]: 3.54 µM
- GI50 [24]: 1960 nM
- TGI [24]: 4.23 µM
- GI50 [25]: 232 nM
- TGI [25]: 1280 nM
- GI50 [26]: 1620 nM
- TGI [26]: 3.41 µM
- GI50 [27]: 1920 nM
- TGI [27]: 9.16 µM
- GI50 [28]: 2400 nM
- TGI [28]: 10.7 µM
- GI50 [29]: 2150 nM
- TGI [29]: 5.78 µM
- GI50 [30]: 1740 nM
- TGI [30]: 3.68 µM
- GI50 [31]: 1260 nM
- TGI [31]: 2970 nM
- GI50 [32]: 2240 nM
- TGI [32]: 6.75 µM
- GI50 [33]: 1910 nM
- TGI [33]: 3.96 µM
- GI50 [34]: 1600 nM
- TGI [34]: 3.05 µM
- GI50 [35]: 1760 nM
- TGI [35]: 3.53 µM
- GI50 [36]: 1950 nM
- TGI [36]: 5.12 µM
- GI50 [37]: 2340 nM
- TGI [37]: 5.34 µM
- GI50 [38]: 1560 nM
- TGI [38]: 6.43 µM
- GI50 [39]: 4.71 µM
- TGI [39]: 17 µM
- GI50 [40]: 2270 nM
- TGI [40]: 4.07 µM
- GI50 [41]: 2630 nM
- TGI [41]: 10.6 µM
- GI50 [42]: 2580 nM
- TGI [42]: 7.93 µM
- GI50 [43]: 2610 nM
- TGI [43]: 8.92 µM
- GI50 [44]: 1570 nM
- TGI [44]: 3.15 µM
- GI50 [45]: 1160 nM
- TGI [45]: 2400 nM
- GI50 [46]: 1220 nM
- TGI [46]: 2630 nM
- GI50 [47]: 1290 nM
- TGI [47]: 2620 nM
- TGI [48]: 22.7 nM
- GI50 [49]: 2010 nM
- TGI [49]: 4.52 µM
- GI50 [50]: 2100 nM
- TGI [50]: 4.86 µM
- GI50 [51]: 2190 nM
- TGI [51]: 8.03 µM
- GI50 [52]: 1960 nM
- TGI [52]: 4.75 µM
- GI50 [53]: 7.48 µM
- TGI [53]: 20.3 µM
- GI50 [54]: 1730 nM
- TGI [54]: 3.91 µM
- GI50 [55]: 4.18 µM
- TGI [55]: 11.4 µM
- GI50 [56]: 1890 nM
- TGI [56]: 5.47 µM
- GI50 [57]: 1930 nM
- TGI [57]: 7.88 µM
